Patent publication US9051326B2, “Pyrazoline derivatives and their use as selective androgen receptor modulators” (NOVARTIS AG, priority 2011, dated 2015)
Like-named read-outs stand apart in the source and are kept apart here.

Target: T1, androgen receptor (AR) (Homo sapiens, UniProt P10275)
T1 construct: transfecting C2C12 cells with a plasmid containing full-length AR along with an AR response element linked to luciferase; expressed in transfected cells; host or cells: mouse myoblastic C2C12 cells (ATCC CRL-1772), transient transfection with Lipofectamine 2000
T1 sequence (P10275 1-920): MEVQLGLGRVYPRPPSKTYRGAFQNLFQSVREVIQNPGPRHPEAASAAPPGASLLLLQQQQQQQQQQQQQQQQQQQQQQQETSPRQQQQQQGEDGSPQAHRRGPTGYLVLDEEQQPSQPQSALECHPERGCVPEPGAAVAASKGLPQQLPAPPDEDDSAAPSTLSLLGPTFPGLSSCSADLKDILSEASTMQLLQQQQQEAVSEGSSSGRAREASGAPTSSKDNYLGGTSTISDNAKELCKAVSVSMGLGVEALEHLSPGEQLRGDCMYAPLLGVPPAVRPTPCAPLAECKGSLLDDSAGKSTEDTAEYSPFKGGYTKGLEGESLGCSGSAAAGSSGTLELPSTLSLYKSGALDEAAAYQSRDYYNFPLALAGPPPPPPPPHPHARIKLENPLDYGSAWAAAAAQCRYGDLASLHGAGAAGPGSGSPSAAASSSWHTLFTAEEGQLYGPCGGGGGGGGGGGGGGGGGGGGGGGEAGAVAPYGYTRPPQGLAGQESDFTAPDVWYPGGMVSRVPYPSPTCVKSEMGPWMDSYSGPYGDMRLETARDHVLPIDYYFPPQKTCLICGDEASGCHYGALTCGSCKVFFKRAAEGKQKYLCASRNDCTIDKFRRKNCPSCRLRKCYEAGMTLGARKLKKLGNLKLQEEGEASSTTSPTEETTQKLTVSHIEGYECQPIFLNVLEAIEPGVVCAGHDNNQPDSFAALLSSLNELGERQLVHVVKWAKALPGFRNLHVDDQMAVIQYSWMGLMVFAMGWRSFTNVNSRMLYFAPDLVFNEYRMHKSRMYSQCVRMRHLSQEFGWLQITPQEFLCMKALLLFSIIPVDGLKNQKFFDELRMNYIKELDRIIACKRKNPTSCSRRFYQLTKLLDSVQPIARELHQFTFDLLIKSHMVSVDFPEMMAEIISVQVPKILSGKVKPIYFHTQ
Assay: AR transcriptional activation luciferase reporter assay in C2C12 cells (Test 1)
Format: cell-based
Conditions: for % Biological activity (C2C12 cell) 100 nM: 100 nM compound; for % Biological activity (C2C12 cell) 100 nM / % Biological activity (C2C12 cell) 5 μM: activity relative to 1 μM DHT
Procedure: A suitable assay to determine the ability of a ligand to transcriptionally activate androgen receptor (AR) is carried out using mouse myoblastic C2C12 cells. The assay involves transfecting C2C12 cells with a plasmid containing full-length AR along with an AR response element linked to luciferase (2XIDR17). The luminescence read-out at the end of the assay is measured using Victor 3 and is a direct measure of the transcriptional activity. The assay has been validated using the reference compound, BMS-564929, for which EC50 values have been reported in a similar set-up. Other tool compounds that have been used for assay validation are GSK-420A, Andarine, putative Ostarine, and LGD-2226.
C2C12 cells were obtained from ATCC (Cat # CRL-1772) and maintained in DMEM modified to contain 4 mM L-glutamine, 4.5 g/L glucose, 1 mM sodium pyruvate and 1.5 g/L sodium bicarbonate and 10% FBS.
AR-FL in pcDNA 3.1(+) and 2XIDR17 in pGL4.26 plasmids prepared using Genelute plasmid miniprep kit from Sigma Cat # PLED35
• C2C12 cells were seeded in a 96-well plate in DMEM (Dulbecco's Modified Eagle Medium) without phenol red and containing 10% CS-FBS (Charcoal-stripped Fetal Bovine Serum) at 8000 cells/well. • The next day, cells were transfected with an equimolar ratio of (Androgen Receptor-Full length) AR-FL and 2XIDR17-Luciferase at a total plasmid concentration of 200 ng/well using Lipofectamine 2000 following manufacturer's protocol. • For the transfection, 83 ng of AR-FL and 117 ng of 2XIDR17-Luciferase were in 12.5 μl of OptiMEM—Mix A. 0.4 μl of Lipofectamine 2000 was added to 12.5 μl of OptiMEM and incubated for 5 min at room temperature—Mix B. The two mixes A and B were mixed and incubated at room temperature for an additional fifteen minutes. An additional 50 μl of OptiMEM was added, gently mixed and this mixture was added to the cells in the 96-well plate. The above quantities are requirements per well of a 96-well plate. Master mixes were made for the entire plate, with proportional quantity of reagents being used. • 5 h after transfection, compounds were added to the wells in DMEM without phenol red and containing 10% CS-FBS, maintaining a final DMSO concentration of 0.5%. A typical dose response curve starts at 10 μM and includes a 7-point, log dilution, done in triplicates. • After overnight incubation with the compounds, 100 ul of working solution of Steadyglow reagent was added to the wells. • The plates were placed in a shaker for 15 min at the end of which the lysate containing luciferase was transferred to a white flat-bottom plate and read under a luminescence setting in Victor. • Background subtracted counts (Luminescence from DMSO control wells is considered the background) are used to calculate percentage activity, expressed relative to activity with 1 μM (Dihydrotestosterone) DHT (at least two sets of triplicates for 1 μM DHT are included per plate). Data Fitting: • The EC50 curves for the compounds for 8 compound concentrations were fitted by the respective function using non-linear least-squares regression in Graphpad Prism 4.0 (Graphpad Software, San Diego, Calif., USA).

[1] = mouse myoblastic C2C12 cells transfected with AR-FL and 2XIDR17-luciferase, read-out: Biological activity (C2C12 cell) EC50

CO[C@@H]1C(c2ccc(C#N)c(Cl)c2C)=NN2CC[C@@H](O)[C@@H]12 [Example 2, 2-chloro-4-((3S,3aS,4R)-4-hydroxy-3-methoxy-3a,4,5,6-tetrahydro-3H-pyrrolo[1,2-b]pyrazol-2-yl)-3-methylbenzonitrile]
EC50: 0.6 nM

Cc1c(C2=NN3CC[C@H](O)[C@H]3[C@@H]2O)ccc(C#N)c1Cl [Example 3, 2-chloro-4-((3S,3aS,4S)-3,4-dihydroxy-3a,4,5,6-tetrahydro-3H-pyrrolo[1,2-b]pyrazol-2-yl)-3-methylbenzonitrile]
EC50: 821 nM

Cc1c(C2=NN3CC[C@@H](O)[C@H]3[C@@H]2O)ccc(C#N)c1Cl [Example 4, 2-chloro-4-((3S,3aS,4R)-3,4-dihydroxy-3a,4,5,6-tetrahydro-3H-pyrrolo[1,2-b]pyrazol-2-yl)-3-methylbenzonitrile]
% Biological activity (C2C12 cell) 100 nM: 5%
% Biological activity (C2C12 cell) 5 μM (5 μM compound): 32%

CCO[C@@H]1C(c2ccc(C#N)c(Cl)c2C)=NN2CC[C@@H](O)[C@@H]12 [Example 6, 2-chloro-4-((3S,3aS,4R)-3-ethoxy-4-hydroxy-3a,4,5,6-tetrahydro-3H-pyrrolo[1,2-b]pyrazol-2-yl)-3-methylbenzonitrile]
EC50: 0.6 nM

Cc1c(C2=NN3CC[C@H](O)[C@H]3[C@@H]2OC(C)C)ccc(C#N)c1Cl [Example 7, 2-chloro-4-((3S,3aS,4S)-4-hydroxy-3-isopropoxy-3a,4,5,6-tetrahydro-3H-pyrrolo[1,2-b]pyrazol-2-yl)-3-methylbenzonitrile]
EC50: 4 nM

CO[C@@H]1C(c2ccc(C#N)c(Cl)c2C)=NN2C[C@H](O)C[C@@H]12 [Example 8, 2-chloro-4-((3S,3aS,5R)-5-hydroxy-3-methoxy-3a,4,5,6-tetrahydro-3H-pyrrolo[1,2-b]pyrazol-2-yl)-3-methylbenzonitrile]
EC50: 6.7 nM

CO[C@@H]1C(c2ccc(C#N)c(Cl)c2C)=NN2CC(=O)C[C@@H]12 [Example 9, 2-chloro-4-((3S,3aS)-3-methoxy-5-oxo-3a,4,5,6-tetrahydro-3H-pyrrolo[1,2-b]pyrazol-2-yl)-3-methylbenzonitrile]
EC50: 10.5 nM

Cc1c(C2=NN3C[C@H](O)C[C@H]3[C@@H]2O)ccc(C#N)c1Cl [Example 10, 2-chloro-4-((3S,3aS,5R)-3,5-dihydroxy-3a,4,5,6-tetrahydro-3H-pyrrolo[1,2-b]pyrazol-2-yl)-3-methylbenzonitrile]
% Biological activity (C2C12 cell) 100 nM: 4%
% Biological activity (C2C12 cell) 5 μM (5 μM compound): 2%

CO[C@@H]1C(c2ccc(C#N)c(Cl)c2C)=NN2CC(O)(C(F)(F)F)C[C@@H]12 (stereo partly drawn) [Example 11, 2-chloro-4-((3S,3aS)-5-hydroxy-3-methoxy-5-(trifluoromethyl)-3a,4,5,6-tetrahydro-3H-pyrrolo[1,2-b]pyrazol-2-yl)-3-methylbenzonitrile]
% Biological activity (C2C12 cell) 100 nM: 24%
% Biological activity (C2C12 cell) 5 μM (5 μM compound): 33%

CO[C@@H]1C(c2ccc(C#N)c(Cl)c2C)=NN2CC[C@@H](F)[C@@H]12 [Example 12, 2-chloro-4-((3S,3aR,4R)-4-fluoro-3-methoxy-3a,4,5,6-tetrahydro-3H-pyrrolo[1,2-b]pyrazol-2-yl)-3-methylbenzonitrile]
EC50: 0.1 nM

CO[C@@H]1C(c2ccc(C#N)c(Cl)c2C)=NN2CC[C@H](F)[C@@H]12 [Example 13, 2-chloro-4-((3S,3aR,4S)-4-fluoro-3-methoxy-3a,4,5,6-tetrahydro-3H-pyrrolo[1,2-b]pyrazol-2-yl)-3-methylbenzonitrile]
EC50: 1.3 nM

CO[C@@H]1C(c2ccc(C#N)c(Cl)c2C)=NN2C[C@@H](F)C[C@@H]12 [Example 14, 2-chloro-4-((3S,3aS,5S)-5-fluoro-3-methoxy-3a,4,5,6-tetrahydro-3H-pyrrolo[1,2-b]pyrazol-2-yl)-3-methylbenzonitrile]
EC50: 1.7 nM

CO[C@@H]1C(c2ccc(C#N)c(Cl)c2C)=NN2CC(F)(F)C[C@@H]12 [Example 15, 2-chloro-4-((3S,3aS)-5,5-difluoro-3-methoxy-3a,4,5,6-tetrahydro-3H-pyrrolo[1,2-b]pyrazol-2-yl)-3-methylbenzonitrile]
EC50: 0.1 nM

Cc1c(C2=NN3CC[C@H](O)[C@H]3[C@@H]2OCCF)ccc(C#N)c1Cl [Example 16, 2-chloro-4-((3S,3aS,4S)-3-(2-fluoroethoxy)-4-hydroxy-3a,4,5,6-tetrahydro-3H-pyrrolo[1,2-b]pyrazol-2-yl)-3-methylbenzonitrile]
EC50: 2 nM

Cc1c(C2=NN3CC[C@H](O)[C@H]3[C@@H]2OCC2CC2)ccc(C#N)c1Cl [Example 17, 2-chloro-4-((3S,3aS,4S)-3-(cyclopropylmethoxy)-4-hydroxy-3a,4,5,6-tetrahydro-3H-pyrrolo[1,2-b]pyrazol-2-yl)-3-methylbenzonitrile]
% Biological activity (C2C12 cell) 100 nM: 91%
% Biological activity (C2C12 cell) 5 μM (5 μM compound): 100%

CO[C@@H]1C(c2ccc(C#N)c(Cl)c2C)=NN2C[C@@H](O)C[C@@H]12 [Example 18, 2-chloro-4-((3S,3aS,5S)-5-hydroxy-3-methoxy-3a,4,5,6-tetrahydro-3H-pyrrolo[1,2-b]pyrazol-2-yl)-3-methylbenzonitrile]
activity at 5 μM concentration (C2C12 cell) (5 μM compound, symbol defined in table footnote): ** (at 5 μM concentration, <10% activity)

CO[C@@H]1C(c2ccc(C#N)c(Cl)c2C)=NN2C[C@@H](I)C[C@@H]12 [Example 19, 2-chloro-4-((3S,3aS,5S)-5-iodo-3-methoxy-3a,4,5,6-tetrahydro-3H-pyrrolo[1,2-b]pyrazol-2-yl)-3-methylbenzonitrile]
EC50: 7 nM

CO[C@H]1CCN2N=C(c3ccc(C#N)c(Cl)c3C)[C@@H](OC)[C@H]12 [Example 20, 2-chloro-4-((3S,3aS,4S)-3,4-dimethoxy-3a,4,5,6-tetrahydro-3H-pyrrolo[1,2-b]pyrazol-2-yl)-3-methylbenzonitrile]
EC50 [1]: 7.1 nM

COCCO[C@@H]1C(c2ccc(C#N)c(Cl)c2C)=NN2CC[C@H](O)[C@@H]12 [Example 21, 2-chloro-4-((3S,3aS,4S)-4-hydroxy-3-(2-methoxyethoxy)-3a,4,5,6-tetrahydro-3H-pyrrolo[1,2-b]pyrazol-2-yl)-3-methylbenzonitrile]
EC50 [1]: 0.93 nM

COCCO[C@@H]1C(c2ccc(C#N)c(Cl)c2C)=NN2CC[C@@H](F)[C@@H]12 [Example 22, 2-chloro-4-((3S,3aR,4R)-4-fluoro-3-(2-methoxyethoxy)-3a,4,5,6-tetrahydro-3H-pyrrolo[1,2-b]pyrazol-2-yl)-3-methylbenzonitrile]
EC50: 0.98 nM
